Measurements taken from US20240189264A1 (priority 2024, published 2024).

C-reactive protein (CRP) level (in words) (patients taking atenolol single dose): significantly high
Structure (SMILES): CC(C)NCC(O)COc1ccc(CC(N)=O)cc1 (centres unmarked) [Atenolol]
response of hypertensive patients to atenolol (single dose of 100 mg atenolol, oral administration): mostly respond
